Assay results reported in patent US20190117596A1 (WAYNE STATE UNIVERSITY, priority 2016, published 2019).
“Also recorded” adds a separate entry of the source. Each block holds one molecule with its values, some of them ahead of it.

Experiments:
[1] = system: IL-6 expression; assay: TGF-β-induced IL-6 expression in H1793 lung adenocarcinoma cells (qPCR); type: cell-based, human; conditions: CAY10444 10 μM
Method: FIGS. 14A-14E. S1P3 regulates the TGF-β-stimulated IL-6 expression. (14A) H1793 lung adenocarcinoma cells were pre-treated for 30 min with inhibitor of TGF-β receptor I (SB4, SB431542, 10 uM) or Smad3 (SIS3, 2 uM), followed by stimulating with TGF-β (1 ng/ml) for 4 hrs. Levels of IL-6 were analyzed by qPCR. […] The S1P-induced IL-6 expression is diminished when S1PR3 were knocked-down. (14E) HBEC2-KT normal lung epithelial cells were transduced with adenoviral particles carrying S1PR3 (Ad-S1PR3) or β-galactosidase (Ad-Ctrl, 200 m.o.i.) for overnight, followed by stimulating with or without S1P (200 nM, 4 hrs). mRNA levels of IL-6 were measured by qPCR analysis. Data are mean±SD from a representative experiment (n=3). Each experiment was repeated at least one time with similar results. Data are mean+S.D. (n=3). *, p<0.05; NS, non-statistic significance; t-test.
(§1) Real-time PCR Analysis. Total RNA was isolated using TRIzol reagent (Invitrogen) and was reverse-transcribed with an oligo(dT) primer (Promega) by Moloney Murine Leukemia Virus (M-MLV) Reverse Transcriptase (Promega) for first-strand cDNA synthesis. For real-time PCR quantitation, 50 ng of reversely transcribed cDNAs were amplified with the ABI 7500 system (Applied Biosystems) in the presence of TaqMan DNA polymerase. […]

[2] = biological target: T1, S1PR1 (Homo sapiens, UniProt P21453); assay: S1P-stimulated ERK1/2 activation in CHO cells transduced with S1PR1 (Western blot p-ERK); type: cell-based; conditions: TY-52156 10 μM, 10 min, then S1P 200 nM
T1 construct: expressed in transfected cells; host or cells: CHO cells, adenoviral transduction
Method: (§2) FIGS. 7A-7E. Inhibition of S1PR3 diminishes lung carcinoma growth. (7A), C57BL/6 mice were subcutaneously inoculated with LLC cells (1×10^6 cells). 1 week later, mice were intraperitoneally administered with VPC23019 (1.5 mg/kg of body weight) or control vehicle every 3 days. (7B), S1PR1 and S1PR3 levels in Lewis lung carcinoma cells. -ve, PCR reactions were performed without cDNA. **, p<0.01, n=6, ANOVA. (7C), CHO cells were transduced with adenoviral particles carrying S1PR1, S1PR2, S1PR3, or pcDNA control vector. Cells were serum-starved for 24 h. […] ERK1/2 activation (p-ERK) was measured by Western blotting analysis. (7D), C57BL/6 mice were subcutaneously inoculated with LLC cells (1×10^6 cells). […] (7E), tumor weights were measured 24 days after implantation. **, p<0.01, n=6, ANOVA.
(§3) Western Blotting Analysis. Protein extraction and Western blotting were performed as described (11). Briefly, cells were collected in ice-cold PBS using cell scrapers followed by centrifugation (500×g, 5 min). […] After centrifugation at 15,000×g for 20 min, supernatant was collected and protein concentration was measured using a bicinchoninic acid protein assay kit with BSA as standard. […]

[3] = biological target: T2, S1PR2 (Homo sapiens, UniProt O95136); assay: S1P-stimulated ERK1/2 activation in CHO cells transduced with S1PR2 (Western blot p-ERK); type: cell-based; conditions: TY-52156 10 μM, 10 min, then S1P 200 nM
T2 construct: expressed in transfected cells; host or cells: CHO cells, adenoviral transduction
Method: as §2, §3

[4] = system: Lewis lung carcinoma cells; assay: Subcutaneous Lewis lung carcinoma tumor growth in C57BL/6 mice; type: in vivo, mouse; conditions: s.c. LLC cells
Method: as §2
Tumor Growth and Lung Colonization in Mice. All animal procedures were performed according to the National Institutes of Health and institutional guidelines, and were approved by the Wayne State University Animal Use and Care Committee. For subcutaneous implantation, lung carcinoma cells were adjusted to 1×10^7 cells/ml. Mice were injected with 0.1 ml of cell suspension into the subcutaneous dorsa in the proximal midline. […] Tumor volume was measured in two dimensions using calipers, and volume was determined using the formula width 2×length×0.52 (49). […]

[5] = system: lung adenocarcinoma; assay: Lung adenocarcinoma in LSL-KRas G12D mouse model (Ad-Cre); type: in vivo; conditions: Ad-Cre injected mice; 10 mg/kg i.p. every two days; lungs analyzed 2 months later
Method: FIGS. 8A-AD. […] Mice were injected with or without Ad-Cre. Lungs were analyzed for adenocarcinoma 2 months later. (8A) LSL-KRas^G12D injected with Ad-Cre. (8B) LSL-KRas^G12D injected with Ad-Cre. […] (8C) LSL-KRas^G12D mice injected with Ad-Ctrl. (8D) wild-type C57BL/6 mice injected with Ad-Cre. Arrows, lung adenocarcinomas. Scale bar=[…].

[6] = system: human lung adenocarcinoma cells exhibiting K-Ras G12D mutation; assay: Proliferation and colony formation of cultured lung adenocarcinoma cells; type: cell-based
[7] = system: S1PR3 expression; assay: S1PR3 up-regulation in K-Ras G12V-expressing HEK293 cells (qPCR); type: cell-based; conditions: HEK293 pBabe-K-Ras G12V, anti-TGF-β 10 μg/ml, SB-431542 10 μM, SIS3 2 μM, 37° C., 24 h
Method: FIGS. 3A-3F. TGF-β/SMAD3 signaling contributes to oncogenic K-Ras mutant-stimulated S1PR3 up-regulation. (3A), P, potential SMAD3 binding sites in S1PR3 promoter. 0, transcription initiation site. (3B-3D), HEK293 cells were stably transfected with pBabe-K-Ras^G12V or pBabe control vector. Levels of total cellular K-Ras (3B), S1PRs (3C), and TGF-β (3D) were measured by qPCR analysis. (3E), HEK293 cells transfected with pBabe-K-Ras^G12V or pBabe control vector were incubated with anti-TGF-β (Cell Signaling, antibody number 3711, 10 μg/ml) or irrelevant normal rabbit IgG (10 μg/ml) at 37° C. for 24 h. Levels of S1PR3 were quantitated by qPCR. (3F), HEK293 cells transfected with pBabe-K-Ras^G12V or pBabe control vector were treated with or without SB-431542 (SB4) (inhibitor of TGF-β receptor 1, 10 μM) or SIS3 (inhibitor of SMAD3, 2 μM) at 37° C. for 24 h. Levels of S1PR3 were quantitated by qPCR. **, p<0.01, n=3, Student's t test.
as §1

[8] = system: S1PR3 expression; assay: TGF-β-stimulated S1PR3 up-regulation in HBEC2-KT cells (qPCR); type: cell-based, human; conditions: 30 min pretreatment, SB-431542 10 μM, SIS3 2 μM, SB-203580 50 nM, BAY11-7085 10 μM, JNK inhibitor II 10 μM, TGF-β 4 h
Method: FIGS. 4A-4H. TGF-β/SMAD3 signaling axis up-regulates S1PR3. (4A), HBEC2-KT cells were treated with TGF-β (1 ng/ml) for various times. mRNA levels of S1P receptors were measured by qPCR analysis. Data are mean±S.D. of triplicate determinations. *, p<0.05, Student's t test. (4B), protein levels of S1PR3 in TGF-β (1 ng/ml)-treated HBEC2-KT cells. Lower panel, Western blot intensity was quantitated by National Institutes of Health ImageJ. Data (normalized to actin) are mean±S.D. of triplicate determinations. * and **, p<0.05 and 0.01, respectively, Student's t test. (4C), CHO cells were transduced with adenoviral particles (multiplicity of infection of 200) carrying S1PR1, S1PR2, or S1PR3 vector for 20 h as previously described (8). Extracts were blotted with antibody against S1PR3 (Cayman), S1PR2 (Cayman), or S1PR1 (E49) (8). […] Medium was quantitated for S1P, ceramide (Cer), and sphingomyelin (SPM) by LC-MS/MS (29, 46). […] S1PR3 levels were measured by qPCR, following TGF-β treatment (4 h). […] Activation of p38, JNK, and NFκB was measured by Western blotting with phospho-p38 (P-p38), phospho-JNK (P-p54^JNK and P-p46^JNK), and phospho-IκBα (p-IκBα). […]
Real-time PCR Analysis. […] For real-time PCR quantitation, 50 ng of reversely transcribed cDNAs were amplified with the ABI 7500 system (Applied Biosystems) in the presence of TaqMan DNA polymerase. […]

T1 sequence (P21453 whole entry, species assumed): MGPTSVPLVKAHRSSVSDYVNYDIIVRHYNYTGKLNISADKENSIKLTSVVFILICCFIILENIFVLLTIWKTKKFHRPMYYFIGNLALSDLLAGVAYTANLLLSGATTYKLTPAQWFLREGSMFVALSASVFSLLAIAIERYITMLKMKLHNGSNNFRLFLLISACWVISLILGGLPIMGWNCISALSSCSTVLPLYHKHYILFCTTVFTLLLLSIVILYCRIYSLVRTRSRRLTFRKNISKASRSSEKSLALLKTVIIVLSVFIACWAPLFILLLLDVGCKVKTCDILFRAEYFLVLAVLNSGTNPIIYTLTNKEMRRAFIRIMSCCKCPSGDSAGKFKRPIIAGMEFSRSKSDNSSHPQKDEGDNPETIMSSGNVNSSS
T2 sequence (O95136 whole entry, species assumed): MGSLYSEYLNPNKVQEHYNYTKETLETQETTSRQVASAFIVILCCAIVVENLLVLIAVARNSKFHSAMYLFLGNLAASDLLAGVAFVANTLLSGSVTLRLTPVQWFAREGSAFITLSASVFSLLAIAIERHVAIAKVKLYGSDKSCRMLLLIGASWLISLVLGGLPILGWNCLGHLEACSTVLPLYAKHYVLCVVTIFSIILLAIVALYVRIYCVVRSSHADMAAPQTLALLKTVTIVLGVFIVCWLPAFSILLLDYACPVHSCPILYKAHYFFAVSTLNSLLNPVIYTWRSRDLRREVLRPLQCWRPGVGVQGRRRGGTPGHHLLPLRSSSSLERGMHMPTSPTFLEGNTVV

Structure (SMILES): CCCCCCCCCCCC1N[C@H](C(=O)O)CS1 (some centres unmarked) [CAY10444]
- TGF-β-induced IL-6 expression [1]: significantly diminished

- S1P/S1PR1-stimulated ERK1/2 activation [2]: had no effect
- S1P/S1PR2-stimulated ERK1/2 activation [3]: had no effect
Structure (SMILES): CC(C)(C)C(=O)/C(=N/c1ccc(Cl)cc1)NNc1ccc(Cl)cc1 [TY-52156, 1-(4-chlorophenylhydrazono)-1-(4-chlorophenylamino)-3,3-dimethyl-2-butanone]
- growth of Lewis lung carcinoma (tumor volume, tumor weight 24 days after implantation) ([4]; 10 mg/kg intraperitoneally every 2 days from 1 week after inoculation, 10 mg/kg): significantly suppressed; also recorded: significantly diminished
- lung adenocarcinoma in LSL-KRas G12D mouse model [5]: significantly inhibits
- proliferation and colony formation [6]: effective in inhibiting

Structure (SMILES): NC(=O)c1ccc(-c2nc(-c3ccc4c(c3)OCO4)c(-c3ccccn3)[nH]2)cc1 [SB-431542]
- S1PR3 up-regulation in K-Ras G12V-expressing cells [7]: abrogated
- TGF-β-stimulated S1PR3 up-regulation [8]: abrogated

Structure (SMILES): COc1cc2c(cc1OC)CN(C(=O)/C=C/c1c(-c3ccccc3)n(C)c3ncccc13)CC2 [SIS3]
- S1PR3 up-regulation in K-Ras G12V-expressing cells [7]: abrogated
- TGF-β-stimulated S1PR3 up-regulation [8]: abrogated

Structure (SMILES): CCCCCCCCc1cccc(NC(=O)[C@H](N)COP(=O)(O)O)c1 [VPC23019]
- tumor growth ([4]; 1.5 mg/kg intraperitoneally every 3 days from 1 week after inoculation, 1.5 mg/kg): significantly inhibited; also recorded: significantly diminished
